In US8114847B2, “Selective inhibitors of translesion DNA replication” (Case Western Reserve University, priority 2005, dated 2012):
“And” between values parts separate entries of the source, which are not always exact repeats. Identical values can stand only once. Like-named read-outs stand apart in the source and are kept apart here.

Columns and labels:
[1] = target: T1, gp43 exo+ (bacteriophage T4 DNA polymerase) (Enterobacteria phage T4, UniProt P04415); assay: Pre-steady-state exonuclease assay (excision of dXMP from primer); type: biochemical; details: for kexo: single turnover, 1 μM gp43exo+
T1 construct: made in house
T1 sequence (P04415 1-898): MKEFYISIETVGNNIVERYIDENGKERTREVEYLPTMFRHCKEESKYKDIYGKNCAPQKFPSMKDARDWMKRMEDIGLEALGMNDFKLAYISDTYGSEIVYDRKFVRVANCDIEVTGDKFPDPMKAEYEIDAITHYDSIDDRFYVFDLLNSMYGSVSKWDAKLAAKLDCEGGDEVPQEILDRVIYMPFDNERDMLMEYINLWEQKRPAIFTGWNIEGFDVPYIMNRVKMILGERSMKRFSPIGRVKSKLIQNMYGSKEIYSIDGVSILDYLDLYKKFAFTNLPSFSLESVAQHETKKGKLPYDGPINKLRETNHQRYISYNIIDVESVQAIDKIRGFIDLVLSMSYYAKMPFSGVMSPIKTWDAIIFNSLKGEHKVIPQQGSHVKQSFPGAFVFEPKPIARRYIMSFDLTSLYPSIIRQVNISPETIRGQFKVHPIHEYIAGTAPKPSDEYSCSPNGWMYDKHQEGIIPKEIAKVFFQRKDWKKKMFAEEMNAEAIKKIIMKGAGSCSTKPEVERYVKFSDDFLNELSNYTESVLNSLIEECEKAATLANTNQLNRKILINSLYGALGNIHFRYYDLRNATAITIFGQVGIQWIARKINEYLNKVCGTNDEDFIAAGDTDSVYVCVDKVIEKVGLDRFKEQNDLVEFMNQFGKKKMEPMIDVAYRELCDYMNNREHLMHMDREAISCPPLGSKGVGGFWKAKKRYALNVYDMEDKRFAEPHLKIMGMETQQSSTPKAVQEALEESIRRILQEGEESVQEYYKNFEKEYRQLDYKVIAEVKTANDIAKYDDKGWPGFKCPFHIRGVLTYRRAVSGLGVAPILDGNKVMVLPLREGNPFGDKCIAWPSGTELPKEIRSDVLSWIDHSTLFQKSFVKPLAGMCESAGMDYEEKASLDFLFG

[2] = target: T2, gp43exo− (bacteriophage T4 DNA polymerase) (Enterobacteria phage T4, UniProt P04415, D219A); type: biochemical; details: 500 μM analogue; 10 μM dNTPs; unmodified 13/20-mer
[3] = target: T2, gp43exo− (bacteriophage T4 DNA polymerase); details: previously demonstrated, cited from earlier work
[4] = target: T2, gp43exo− (bacteriophage T4 DNA polymerase); details: cited from earlier work
[5] = target: T2, gp43exo− (bacteriophage T4 DNA polymerase); details: opposite an abasic site; previously determined values (Table 7 footnotes d, e, f not given); cited from earlier work
[6] = target: T2, gp43exo− (bacteriophage T4 DNA polymerase); assay: biochemical; type: biochemical; details: for inhibition of replication beyond an abasic site: 20 μM analogue, 500 μM dNTPs
[7] = target: T2, gp43exo− (bacteriophage T4 DNA polymerase); type: biochemical; details: 50 μM dXTP 30 s, then 1000 μM dGTP
[8] = test system: bacteriophage T4 polymerase; assay: Calculated discrimination, toxicity index and therapeutic index; type: biochemical; details: for toxicity index (abasic DNA) / toxicity index (unmodified DNA): (kpol dNTP/kexo dXTP)(dXTP/dNTP)/(4D); for discrimination (unmodified DNA): ratio of catalytic efficiencies opposite templating nucleobase; for discrimination (abasic DNA): ratio of catalytic efficiencies, dATP versus dXTP
[9] = target: T1, gp43 exo+ (bacteriophage T4 DNA polymerase); assay: Idle turnover measurements with KINSIM simulation; type: biochemical
Method: DNA (13/20SP-mer or 13/20T-mer; 250 nM) was first preincubated with variable concentrations of 5-NITP (20-200 μM) or 5-PhITP (10-200 μM) in the presence of 30 μM dATP. Due to the nature of the DNA substrate (FIG. 1B), the insertion of dAMP opposite T at position 13 in the template maintains a usable primer template for the insertion of the nonnatural nucleotide opposite the abasic lesion (position 14). In all cases, the reaction was initiated through the addition of 1000 nM DNA gp43 exo^+. Five microliter aliquots of the reaction were quenched into tubes containing 5 μL of 200 mM EDTA at times ranging from 5 to 600 s. The quenched samples were processed as described above and product formation was analyzed using established protocols.
Simulations modeling the observed kinetic time courses for nucleotide insertion and excision were performed by mathematical analyses using KINSIM. A simplified mechanism depicted in FIG. 11 was employed that accounts for the kinetic parameters of interest. These minimally include KD values for each nucleotide, kpol values for their insertion, and kexo, which represents the hydrolytic rate constant. Both the starting reactant concentrations and rate constants were supplied for each step of the mechanism. In all cases, the rate constants were based upon either experimentally determined rate constants or published literature values. The simulated curves were then compared to those experimentally derived to judge how accurately each set of rate constants fit the experimental data. Adjustments to the rate constants were then made until the simulated time courses were nearly identical to the experimental time courses.
Idle turnover is a process in which the DNA polymerase incorporates a dNTP and then excises the inserted dNMP in the absence of the next required nucleotide triphosphate (FIG. 11). This activity provides a more accurate representation of in vivo conditions in which the polymerase should be bound and stalled at the sight of DNA damage. Idle turnover was quantified using a modified gel electrophoresis protocol that monitors the amount of extension (13-mer to 14-mer) and subsequent excision (14-mer to 13-mer) of the DNA as a function of time. All experiments were performed using single turnover reaction conditions to ensure that all DNA was bound with polymerase during the course of the reaction. Under these conditions, the rates in product formation reflect the kinetics of insertion and excision rather than enzyme dissociation from the mispair. In each experiment, the concentration of nonnatural nucleotide was varied from 20 to 200 μM. In addition, a low concentration of 30 μM dATP was used to allow for correct dNMP insertion at position 13-mer, which prevents complete degradation of DNA substrate.
Since single turnover reaction conditions were employed, kinetic steps reflecting enzyme dissociation and rebinding to product DNA are assumed to be negligible. Thus, the rate and amount of 14-mer produced are dependent upon four interrelated parameters. These include the kinetic dissociation constant (KD) for dXTP opposite the lesion (DNAn) (step 2), the rate constant for DNA extension (kpol) (step 3), the rate constant of exonuclease degradation (kexo) (step 5), and the kinetic dissociation constant (KD′) for dXTP opposite the next templating position (DNAn+1) (step 6). Although kpol is a complex function of kinetic rate constants, this value was simplified to combine the kinetic steps encompassing the conformational change prior to phosphoryl transfer, phosphoryl transfer, and the conformational change after phosphoryl transfer. Furthermore, translocation of the enzyme and pyrophosphate release (step 4) are assumed to be rapid.

[10] = target: T2, gp43exo− (bacteriophage T4 DNA polymerase); assay: biochemical; type: biochemical
[11] = target: T2, gp43exo− (bacteriophage T4 DNA polymerase); assay: biochemical; details: for kpol: pseudo-first-order conditions
[12] = target: T1, gp43 exo+ (bacteriophage T4 DNA polymerase); details: paired opposite T; cited from earlier work
[13] = idle turnover opposite an abasic site, computer simulation fit of time courses

For O=[N+]([O-])c1ccc2c(ccn2[C@H]2C[C@H](O)[C@@H](COP(=O)(O)OP(=O)(O)OP(=O)(O)O)O2)c1 [5-NITP, 5-nitro-1-indolyl-2′-deoxyribose-5′-triphosphate], the kexo ([1]; template abasic site) was 9.9 ± 0.8 s⁻¹, the kexo ([1]; template nucleoside thymine) was 13.0 ± 1.4 s⁻¹ and the “inhibition of normal DNA synthesis” value [2] was “little effect”. For the same molecule, the Kd ([3]; independent of templating nucleobase) was roughly 20 µM, the kpol ([3]; opposite T) was roughly 0.9 s⁻¹ and the Kd [4] was 18 µM and ~10 µM. For the same molecule, the “catalytic efficiency for insertion opposite an abasic site relative to natural nucleotide (dAMP/dATP), greater” value [4] was 1000 fold, the “incorporation opposite an abasic site favored compared to insertion opposite T (kpol)” value [4] was 140 fold and the kpol [4] was 126 ± 6 s⁻¹. The kpol/KD [4] was 7e+06 M⁻¹ s⁻¹, the Kd [5] was 18 µM and 10 µM and the kpol [5] was 126 s⁻¹ and 126 ± 7 s⁻¹. For the same molecule, the “inhibition of replication beyond an abasic site” value [6] was “level of 14-mer product remains invariant”, the IC50 [6] was 10 µM and ~10 µM and the “extension beyond the mispair formed opposite an abasic site” value [7] was “cannot elongate beyond the 14-mer product”. The therapeutic index [8] was roughly 128, the “toxicity index (abasic DNA)” value [8] was roughly 6 and the “toxicity index (unmodified DNA)” value [8] was 0.047. For the same molecule, the “discrimination (unmodified DNA)” value [8] was roughly 53, the “discrimination (abasic DNA)” value [8] was 6.1×10^−4 and the Kd ([9]; dXTP opposite the next templating position, computer simulation fit) was 10000 µM. For the same molecule, the Kd [9, 13] was 20 µM, the kexo [9, 13] was 10 S^−1 and 10 ± 2 S^−1 and the kpol [9, 13] was 100 S^−1 and 100 ± 10 S^−1.

With O=P(O)(O)OP(=O)(O)OP(=O)(O)OC[C@H]1O[C@@H](n2ccc3cc(-c4ccccc4)ccc32)C[C@@H]1O [5-PhITP, 5-Phenyl-indole-2′-Deoxyribofuranoside 5′-Triphosphate] the “inhibition of normal DNA synthesis” value [2] was “Nearly identical results are obtained”, the “inhibition of replication beyond an abasic site” value [6] was “Identical results are obtained” and the IC50 [6] was 10 µM and ~10 µM. The “amplitude of the burst phase” value [10] was 75 nM, the burst amplitude [10] was 240 ± 6 nM and 220 ± 3 nM and 220 nM and the kcat [10] was 2.2 s⁻¹. The kobs [10] was 37.4 s⁻¹ and 38.4 s⁻¹ and ~38 s⁻¹ and 38.4 ± 2.1 s⁻¹ and 37.4 ± 1.4 s⁻¹, the “kobs calculated from Michaelis-Menten equation” value [10] was 14 s⁻¹ and the kpol [10] was 53 ± 4 s⁻¹. For the same molecule, the kpol/KD [10] was 3.8e+06 M⁻¹ s⁻¹, the “observed rate constant of the burst phase (kobs)” value [10] was 9.1 ± 2.1 s⁻¹ and 9 s⁻¹ and the Kd ([10]; KD) was roughly 10 µM. For the same molecule, the “extension beyond the mispair formed opposite an abasic site” value [7] was “identical results are obtained”, the “toxicity index (abasic DNA)” value [8] was roughly 33 and the “toxicity index (unmodified DNA)” value [8] was 0.01-0.05. For the same molecule, the “discrimination (unmodified DNA)” value [8] was 460-2500, the “discrimination (abasic DNA)” value [8] was 11.4×10^−5 and 11.4 × 10^−4 and the Kd ([11]; KD) was roughly 25 µM. For the same molecule, the kpol/KD ([11]; Template A) was 4.0 × 10^3 M^−1S^−1, the kpol ([11]; Template A) was 0.12 ± 0.01 s⁻¹ and the kpol/KD ([11]; Template C) was 6.8 × 10^3 M^−1S^−1. The kpol ([11]; Template C) was 0.19 ± 0.02 s⁻¹, the kpol/KD ([11]; Template G) was 21.7 × 10^3 M^−1S^−1 and the kpol ([11]; Template G) was 0.26 ± 0.02 s⁻¹. The kpol/KD ([11]; Template T) was 6.4 × 10^3 M^−1S^−1, the kpol ([11]; Template T) was 0.16 ± 0.01 s⁻¹ and the “stability of incorporation opposite the abasic site (idle turnover)” value ([9]; 100 μM nucleotide, compared with 100 μM 5-NITP) was “more stably incorporated opposite the abasic site”. For the same molecule, the Kd [9, 13] was 20 ± 5 µM, the kexo [9, 13] was 1.0 ± 0.1 S^−1 and the kpol [9, 13] was 50 ± 10 S^−1.

In the case of Nc1ncnc2c1ncn2[C@H]1C[C@H](O)[C@@H](COP(=O)(O)O)O1 [dAMP], the “rate constant for excision opposite the abasic site faster than opposite T” value ([1]; abasic site versus T) is reported as roughly 40 fold, the kexo ([1]; template abasic site) is reported as 28.5±1.1 s^−1 and ≈ 28 s^−1 and 28.5+/−1.1 s^−1 and the kexo ([1]; template nucleoside thymine) is reported as 0.8 ± 0.1 s⁻¹. For the same molecule, the “kexo, published value” [12] was 2 s⁻¹.
